Patent publication US20070122377A1, “Compositions and methods of treatment” (priority 2003, published 2007)

Legend:
U937 cells [1] = experiment: IL-10 ELISA in U937 cells, prostaglandins in presence and absence of rolipram (Examples 5 and 6, FIGS. 7 and 8); format: cell-based, human
Description: U 937 cells were grown in RPP (PAA Laboratories) medium with 10% fetal calf serum added (PAA Laboratories). 2×10^6 cells per flask were treated with prostaglandin E2 at 10^−6 Molar or with Rolipram (4×10^−6) for 24 hours. Medium was removed at 20 hours and analysed by ELISA. A capture antibody (Pharmingen) was coated onto 96 well plates and culture medium was added each well. A standard curve was created with recombinant IL-10 protein. After incubation and washing, a biotin labelled monoclonal antibody (Pharmingen) was added and following incubation and washing, peroxidase labelled streptavidin was added. After washing a tetramethyl benzidine substrate was added and colour developed in proportion to IL-10 in the original sample/standard. Colour was read using a plate photometer (Labsystems, Multiskan). Mean concentrations (N=3) in controls with no lipopolysaccharide (LPS) were 38.2 pg/ml and in the presence of LPS (100 nM) they were 43.9 […].
The effect of PGE1, PGE2, 19 hydroxy PGE1 and 19 hydroxy PGE2 on the stimulation of IL-10 in the presence and absence of rolipram was investigated as described above in Example 5. IL-10 levels were measured using an ELISA assay (R&D Ltd, Oxford). Measurement was performed according to the manufacturer's instructions.

U937 cells [2] = experiment: Release of IL-10 protein from U937 monocytes in response to PGE and GMCSF (Example 3, FIG. 4); format: cell-based, human
Description: Cells were treated for 4 hours with the agents indicated below the graph, washed to remove the treatment and incubated for a further 20 hours before the medium was assayed for IL-10. PGE refers to prostaglandin E2, and GM refers to GMCSF.
U937 cells were grown in RPMI (PAA Laboratories) medium with 10% foetal calf serum (PAA Laboratories) added.

U937 cells [3] = experiment: phosphodiesterase IV-b mRNA in U937 cells (Example 7, FIG. 9); format: cell-based, human; settings: four hours of incubation; PGE 1×10^-6, 19-hydroxy PGE2 5×10^-6
Description: After the incubation (20 hours), cells were pelleted and the mRNA was extracted with Tri-reagent (Sigma, Poole, UK). Total RNA was obtained by addition of chloroform and subsequent isopropanol precipitation. RNA was reverse transcribed with reverse transcriptase (Applied Biosystems) and random hexamers (Applied Biosystems). Probes and primers for IL-10 and IL-12 (p35) were designed using Primer Express (Applied Biosystems) and were as follows:
Template was amplified in a Taqman 7700 machine for 40 cycles using FAM/TAMRA dyes on the probe. The Applied Biosystems kit was used to amplify and detect ribosomal (18S) RNA (using VIC/TAMRA dyes) as an internal control in the same reaction tube. After 40 cycles the Ct (related to cycle number at which signal appears) for the FAM and the 18S (VIC) were recorded and […] relative quantitation was achieved using the formula 2^−ΔΔCt where Δ refers to the difference between the FAM and VIC signal related to an standard comparator included in each run.
The mRNA for phosphodiesterase IV-b was measured as described in Example 5 above. mRNA was extracted after four hours of incubation. The concentration of the PGE was 1×10^−6 and that of the 19-hydroxy PGE2 was 5×10^−6. The following primers and Taqman probe were used for quantitation of PDE IV b mRNA.

PDE = settings: non-specific PDE inhibitor; cited from earlier work
U937 cells [4] = experiment: IL-10 and TNFα mRNA in U937 cells after differentiating agents (Example 9, FIG. 13); format: cell-based, human
Description: U937 (human monocyte cell line) cells were grown in RPMI (PAA Laboratories) medium with 10% fetal calf serum added (PAA Laboratories). Cells were treated with prostaglandin E2 at 10^−6 Molar, Rolipram 10^−6 Molar, Forskolin 50×10^−6 Molar with or without GMCSF at 5 ng/ml for 48 hours. Cells were pelleted and the mRNA was extracted with Tri reagent (Sigma, Poole, UK). Total RNA was obtained by addition of chloroform and subsequent isopropanol precipitation. RNA was reverse transcribed with reverse transcriptase (Applied Biosystems) and random hexamers (Applied Biosystems). Probes and primers for amplification and detection of IL-10 were designed using Primer Express (Applied Biosystems) and are as follows:
As for Example 4 but MRNA for TNFα is also included.
Data is shown as the ratio of IL-10 mRNA/TNFα mRNA. P=PMA=Phorbol myristoyl acetate; F=Fsk=Forskolin g=GMCSF, C=vehicle control.

type IV PDE = settings: cited from earlier work; for IC50: type IV PDE selective inhibitor
[5] = cited from earlier work

Question: Which results are given for 19-hydroxy PGE2?
Answer: stimulation of IL-10 in the presence of a PDE inhibitor (U937 cells [1]): increased strikingly; stimulation of IL-10 in the presence of GMCSF (U937 cells [2]): increased strikingly; PDE activity / PDE message (phosphodiesterase IV-b mRNA) (U937 cells [3]): increase

Question: With CC(C)Cn1c(=O)n(C)c(=O)c2[nH]cnc21 [IBMX, 3-isobutyl-1-methylxanthine] as the molecule, how does the IC50 (PDE) read?
Answer: The IC50 was 2 to 50 µM.

Question: For CCCCC[C@H](O)/C=C/[C@H]1[C@H](O)CC(=O)[C@@H]1C/C=C\CCCC(=O)O [PGE, prostaglandin E2], which “stimulation of IL-10 in the presence of a PDE inhibitor” value (U937 cells [1]) is on record?
Answer: Its value is “increased strikingly”.

Question: And the “stimulation of IL-10 in the presence of GMCSF” value (U937 cells [2])?
Answer: Its value is “increased strikingly”.

Question: What about the “PDE activity / PDE message (phosphodiesterase IV-b mRNA)” value (U937 cells [3]) of the same molecule?
Answer: The value was “increase”.

Question: With CCCCCCCCCCCCCC(=O)O[C@@H]1[C@@H](C)[C@@]2(O)[C@@H](C=C(CO)C[C@]3(O)C(=O)C(C)=C[C@@H]23)[C@@H]2C(C)(C)[C@]12OC(C)=O [PMA, Phorbol myristoyl acetate] as the molecule, how does the “IL-10 mRNA” value (U937 cells [4]; PMA 2×10^-7 M as differentiating agent) read?
Answer: Its value is “increased”.

Question: And the “TNFα mRNA” value (U937 cells [4]; differentiation with the agent)?
Answer: The value was “increased”.

Question: With CCCCOc1cc(CC2CNC(=O)N2)ccc1OC (stereo not shown) [Ro-20-1724, 4-[3-butoxy-4-methoxybenzyl]-2-imidazolidinone] as the molecule, how does the IC50 (type IV PDE) read?
Answer: Its IC50 is 2 µM.

Question: For COc1ccc(C2CNC(=O)C2)cc1OC1CCCC1 (stereo not shown) [rolipram, 4-[3-cyclopentyloxy-4-methoxyphenyl]-2-pyrrolidinone], which IC50 (type IV PDE) is on record?
Answer: The IC50 was 0.8 µM.

Question: For Cn1c(=O)c2[nH]cnc2n(C)c1=O [theophylline], which “times less effective than rolipram” value (type IV PDE; non-selective inhibitor compared with type IV selective rolipram) is on record?
Answer: Its value is 30 times.

B1: GM-CSF: Murine Granulocyte macrophage colony stimulating factor from Peprotech, catalog number 315-03 (protein, UniProt P01587 18-141, looked up)
Granulocyte-macrophage …: APTRSPITVTRPWKHVEAIKEALNLLDDMPVTLNEEVEVVSNEFSFKKLTCVQTRLKIFEQGLRGNFTKLKGALNMTASYYQTYCPPTPETDCETQVTTYADFIDSLKTFLTDIPFECKKPGQK
Question: For B1, which “solubility in aqueous solution” value [5] is on record?
Answer: Its value is “Freely soluble”.
